According to patent US12606557B2, “Substituted indoles with inhibitory activity” (UNIVERSITY OF PITTSBURGH—OF THE COMMONWEALTH SYSTEM OF …, priority 2020, dated 2026):
“And” between values parts separate entries of the source, which are not always exact repeats. Equal entries are not always repeated. Where two headings read alike, the source gives them in different places.

Assay: Blood pharmacokinetics after a single intraperitoneal dose
Assay type: in vivo, male CD1 mice
Conditions: for blood concentrations quantifiable up to: 1 animal out of 3, LLOQ 10.04 ng/mL; for concentration at 0.08 hr / concentration at 0.25 hr / concentration at 0.5 hr / concentration at 1 hr / concentration at 2 hr / concentration at 4 hr / concentration at 8 hr / concentration at 24 hr / AUC(0-inf) / AUC(0-t) / Cmax / Tmax: male, CD1, mouse, in vivo; for concentration at 24 hr: value excluded from data analysis; for AUC(0-inf) / AUC(0-t) / Cmax / Tmax: blood, mean
Method: The objective of this example was to investigate the blood pharmacokinetics of UPHH-123 in male CD1 mice following a single intraperitoneal dose administration. Eighteen male CD1 mice were divided in two groups as, Group 1 and Group 2 comprising nine mice in each group.
Animals in Group 1 were administered intraperitoneally with UPHH-123 solution formulation in 5% NMP, 5% Solutol HS, 30% PEG-400 and 60% normal saline at 10.4 mg/kg dose. Animals in Group 2 were administered intraperitoneally with UPHH-123 solution formulation in 5% NMP, 5% Solutol HS, 30% PEG-400 and 60% normal saline) at 52 mg/kg dose.
Blood samples (approximately 120 μL) were collected at pre-dose, 0.08, 0.25, 0.5, 1, 2, 4, 8 and 24 hr. The blood samples were collected at each time point in a labeled micro centrifuge tube containing K2EDTA as anticoagulant. Immediately aliquot (50 μL) of blood was hemolyzed with equal volume of water (50 μL) and quenched with three volume (150 μL) of acetonitrile (IS containing acetonitrile) and samples were stored below −70° C. until bioanalysis. All samples were processed for analysis by protein precipitation using acetonitrile (ACN) and analyzed with fit for purpose LC/MS/MS method (LLOQ: 10.04 ng/mL for UPHH-123 in blood). Pharmacokinetic parameters were calculated using the non-compartmental analysis tool of Phoenix WinNonlin (Version 7.0). Mean pharmacokinetic parameters are summarized below: […]

COc1ccc(Cn2ccc3ccc(C(=O)NO)cc32)cc1 [UPHH-123]
blood concentrations quantifiable up to (10.4 mg/kg IP): up to 24 hr
Blood Concentration, individual animal (10.4 mg/kg IP, 0.08 hr): 2082.46 ng/mL and 2293.56 ng/mL
Blood Concentration, individual animal (10.4 mg/kg IP, 0.25 hr): 2572.69 ng/mL and 4414.44 ng/mL
Blood Concentration, individual animal (10.4 mg/kg IP, 0.5 hr): 675.87 ng/mL and 848.67 ng/mL
Blood Concentration, individual animal (10.4 mg/kg IP, 1 hr): 105.72 ng/mL and 180.27 ng/mL
Blood Concentration, individual animal (10.4 mg/kg IP, 2 hr): 39.90 ng/mL and 98.73 ng/mL and 125.25 ng/mL
Blood Concentration, individual animal (10.4 mg/kg IP, 4 hr): 47.81 ng/mL and 118.38 ng/mL and 92.93 ng/mL
Blood Concentration, individual animal (10.4 mg/kg IP, 8 hr): 26.21 ng/mL and 17.80 ng/mL
Blood Concentration, individual animal (10.4 mg/kg IP, 24 hr, below LLOQ 10.04 ng/mL = zero): 0.00 ng/mL (2×) and 14.58 ng/mL
blood concentrations quantifiable up to (52 mg/kg IP): up to 24 hr
Blood Concentration, individual animal (52 mg/kg IP, 0.08 hr): 7841.88 ng/mL and 4635.35 ng/mL
Blood Concentration, individual animal (52 mg/kg IP, 0.25 hr): 6058.02 ng/mL and 5694.33 ng/mL
Blood Concentration, individual animal (52 mg/kg IP, 0.5 hr): 3520.30 ng/mL and 4708.54 ng/mL
Blood Concentration, individual animal (52 mg/kg IP, 1 hr): 2031.75 ng/mL and 2659.04 ng/mL
Blood Concentration, individual animal (52 mg/kg IP, 2 hr): 315.76 ng/mL and 238.47 ng/mL and 525.92 ng/mL
Blood Concentration, individual animal (52 mg/kg IP, 4 hr): 442.67 ng/mL and 145.43 ng/mL and 125.55 ng/mL
Blood Concentration, individual animal (52 mg/kg IP, 8 hr): 167.15 ng/mL and 107.02 ng/mL
Blood Concentration, individual animal (52 mg/kg IP, 24 hr, below LLOQ 10.04 ng/mL = zero): 0.00 ng/mL (2×) and 10.38 ng/mL
dose related increase in plasma exposure (from 10.4 to 52 mg/kg IP): 3.6 fold
concentration at 0.08 hr (10.4 mg/kg, 10.4 mg/kg IP, 0.08 hr, read-out: Blood Concentration, Mean): 1990 ng/mL
concentration at 0.08 hr (10.4 mg/kg, 10.4 mg/kg IP, 0.08 hr, read-out: Blood Concentration, individual animal): 1600 ng/mL
concentration at 0.25 hr (10.4 mg/kg, 10.4 mg/kg IP, 0.25 hr, read-out: Blood Concentration, Mean): 3810 ng/mL
concentration at 0.25 hr (10.4 mg/kg, 10.4 mg/kg IP, 0.25 hr, read-out: Blood Concentration, individual animal): 4440 ng/mL
concentration at 0.5 hr (10.4 mg/kg, 10.4 mg/kg IP, 0.5 hr, read-out: Blood Concentration, Mean): 681 ng/mL
concentration at 0.5 hr (10.4 mg/kg, 10.4 mg/kg IP, 0.5 hr, read-out: Blood Concentration, individual animal): 519 ng/mL
concentration at 1 hr (10.4 mg/kg, 10.4 mg/kg IP, 1 hr, read-out: Blood Concentration, Mean): 148 ng/mL
concentration at 1 hr (10.4 mg/kg, 10.4 mg/kg IP, 1 hr, read-out: Blood Concentration, individual animal): 158 ng/mL
concentration at 2 hr (10.4 mg/kg, 10.4 mg/kg IP, 2 hr): 88 ng/mL
concentration at 4 hr (10.4 mg/kg, 10.4 mg/kg IP, 4 hr): 86.4 ng/mL
concentration at 8 hr (10.4 mg/kg, 10.4 mg/kg IP, 8 hr, read-out: Blood Concentration, Mean): 22.6 ng/mL
concentration at 8 hr (10.4 mg/kg, 10.4 mg/kg IP, 8 hr, read-out: Blood Concentration, individual animal): 23.9 ng/mL
concentration at 24 hr (10.4 mg/kg, 10.4 mg/kg IP, 24 hr): 14.6 ng/mL
concentration at 0.08 hr (52 mg/kg, 52 mg/kg IP, 0.08 hr, read-out: Blood Concentration, Mean): 6160 ng/mL
concentration at 0.08 hr (52 mg/kg, 52 mg/kg IP, 0.08 hr, read-out: Blood Concentration, individual animal): 6000 ng/mL
concentration at 0.25 hr (52 mg/kg, 52 mg/kg IP, 0.25 hr, read-out: Blood Concentration, Mean): 5680 ng/mL
concentration at 0.25 hr (52 mg/kg, 52 mg/kg IP, 0.25 hr, read-out: Blood Concentration, individual animal): 5280 ng/mL
concentration at 0.5 hr (52 mg/kg, 52 mg/kg IP, 0.5 hr, read-out: Blood Concentration, Mean): 3820 ng/mL
concentration at 0.5 hr (52 mg/kg, 52 mg/kg IP, 0.5 hr, read-out: Blood Concentration, individual animal): 3230 ng/mL
concentration at 1 hr (52 mg/kg, 52 mg/kg IP, 1 hr, read-out: Blood Concentration, Mean): 2330 ng/mL
concentration at 1 hr (52 mg/kg, 52 mg/kg IP, 1 hr, read-out: Blood Concentration, individual animal): 2280 ng/mL
concentration at 2 hr (52 mg/kg, 52 mg/kg IP, 2 hr): 360 ng/mL
concentration at 4 hr (52 mg/kg, 52 mg/kg IP, 4 hr): 238 ng/mL
concentration at 8 hr (52 mg/kg, 52 mg/kg IP, 8 hr, read-out: Blood Concentration, Mean): 145 ng/mL
concentration at 8 hr (52 mg/kg, 52 mg/kg IP, 8 hr, read-out: Blood Concentration, individual animal): 160 ng/mL
concentration at 24 hr (52 mg/kg, 52 mg/kg IP, 24 hr): 10.4 ng/mL
AUC(0-inf) (10.4 mg/kg IP): 1950 ng·h/mL
AUC(0-t) (10.4 mg/kg IP): 1850 ng·h/mL
Cmax (10.4 mg/kg IP): 3810 ng/mL
Tmax (10.4 mg/kg IP): 15 min
AUC(0-inf) (52 mg/kg IP): 7640 ng·h/mL
AUC(0-t) (52 mg/kg IP): 6680 ng·h/mL
Cmax (52 mg/kg IP): 6160 ng/mL
Tmax (52 mg/kg IP): 4.8 min
